This is an account of results in patent publication US9920010B2, “CXCR7 receptor modulators” (IDORSIA PHARMACEUTICALS LTD, priority 2013, dated 2018).

The test concerns the target T1, CXCR7 (Homo sapiens, UniProt P25106).
T1 construct: host or cells: CHO-K1 (PathHunter CHO-K1 CXCR7 b-arrestin cell line, stably transfected)
The test can be described thus: PathHunter CHO-K1 CXCR7 b-arrestin recruitment assay (CXCR7 agonistic activity). Format: cell-based. The settings on record: PathHunter CHO-K1 CXCR7 b-arrestin cell line. In a few lines: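 Stable CHO-K1 line with C-terminally ProLink-tagged CXCR7 and β-arrestin 2–EA fusion; β-arrestin recruitment restores β-gal activity, read by chemiluminescence after 1 h RT detection. Cells seeded 24 h, starved in OPTIMEM 3–4 h, exposed to compounds 90 min at 37 °C in HBSS/HEPES/BSA. Geometric-mean EC50 from repeated measurements.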

pEC50: −log10 of the molar value.

T1 sequence (P25106 whole entry): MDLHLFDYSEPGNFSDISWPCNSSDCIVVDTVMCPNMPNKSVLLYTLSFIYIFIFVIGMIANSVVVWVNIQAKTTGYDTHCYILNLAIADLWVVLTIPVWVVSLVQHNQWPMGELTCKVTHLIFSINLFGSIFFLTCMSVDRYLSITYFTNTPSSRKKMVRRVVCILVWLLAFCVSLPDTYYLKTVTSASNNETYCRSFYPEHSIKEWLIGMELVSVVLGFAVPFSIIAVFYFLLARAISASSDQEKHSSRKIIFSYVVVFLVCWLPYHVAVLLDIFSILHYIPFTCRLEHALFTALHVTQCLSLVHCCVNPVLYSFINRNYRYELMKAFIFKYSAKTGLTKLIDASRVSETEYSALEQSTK
T1 sequence (P32121 whole entry partner): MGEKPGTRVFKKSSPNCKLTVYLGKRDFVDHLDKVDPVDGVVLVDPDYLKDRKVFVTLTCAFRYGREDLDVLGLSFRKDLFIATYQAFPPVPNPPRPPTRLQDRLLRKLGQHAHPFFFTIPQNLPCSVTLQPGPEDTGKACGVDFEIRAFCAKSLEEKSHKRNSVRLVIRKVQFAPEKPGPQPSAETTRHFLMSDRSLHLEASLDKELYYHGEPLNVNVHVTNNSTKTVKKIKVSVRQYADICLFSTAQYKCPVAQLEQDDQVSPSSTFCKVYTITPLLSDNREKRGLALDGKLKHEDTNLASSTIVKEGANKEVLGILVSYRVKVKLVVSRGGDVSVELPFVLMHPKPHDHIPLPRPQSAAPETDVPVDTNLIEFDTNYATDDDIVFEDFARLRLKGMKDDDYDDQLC

`CC(C)CCN(Cc1ccccc1)C(=O)CNc1cccc2c1CCN(C(=O)OC(C)(C)C)C2` [Example 9, 5-({[Benzyl-(3-methyl-butyl)-carbamoyl]-methyl}-amino)-3,4-dihydro-1H-isoquinoline-2-carboxylic acid tert-butyl ester] showed a negative logarithm of the EC50 (pEC50) of 6.35. To `COCCN1CCc2c(cccc2NCC(=O)N(Cc2ccccc2C(F)(F)F)CC2(C)COC2)C1` [Example 303, 2-[2-(2-Methoxy-ethyl)-1,2,3,4-tetrahydro-isoquinolin-5-ylamino]-N-(3-methyl-oxetan-3-ylmethyl)-N-(2-trifluoromethyl-benzyl)-acetamide] belongs 6.61; to `CN(C)CCN(Cc1ccccc1)C(=O)COc1cccc2c1CN(C(=O)c1ccccc1)CC2` [Example 207, 2-(2-Benzoyl-1,2,3,4-tetrahydro-isoquinolin-8-yloxy)-N-benzyl-N-(2-dimethylamino-ethyl)-acetamide], 8.30; to `C[C@H](Nc1cccc2c1CCN(CC1CC1)C2)C(=O)N(CCN(C)C)Cc1ccccc1C(F)(F)F` [Example 291, (S)-2-(2-Cyclopropylmethyl-1,2,3,4-tetrahydro-isoquinolin-5-ylamino)-N-(2-dimethylamino-ethyl)-N-(2-trifluoromethyl-benzyl)-propionamide], 7.04. To `Cc1ccc2c(c1NCC(=O)N(CCN(C)C)Cc1ccccc1C(F)(F)F)CCN(CC1CC1)C2` [Example 290, 2-(2-Cyclopropylmethyl-6-methyl-1,2,3,4-tetrahydro-isoquinolin-5-ylamino)-N-(2-dimethylamino-ethyl)-N-(2-trifluoromethyl-benzyl)-acetamide] belongs 8.30; to `CN(C)CCN(CCc1ccccc1)C(=O)Cc1cccc2c1CCN(CC1CC1)C2` [Example 2, 2-(2-Cyclopropylmethyl-1,2,3,4-tetrahydro-isoquinolin-5-yl)-N-(2-dimethylamino-ethyl)-N-phenethyl-acetamide], 6.84. With `CN(CCN(Cc1ncccc1C(F)(F)F)C(=O)CNc1cccc2c1CCN(CC1CC1)C2)C(=O)OC(C)(C)C` [Example 215, {2-[[2-(2-Cyclopropylmethyl-1,2,3,4-tetrahydro-isoquinolin-5-ylamino)-acetyl]-(3-trifluoromethyl-pyridin-2-ylmethyl)-amino]-ethyl}-methyl-carbamic acid tert-butyl ester] the figure was 6.97; with `CN(C)CCN(Cc1ccccc1C(F)(F)F)C(=O)CNc1cccc2c1CCN(C1COC1)C2` [Example 353, N-(2-Dimethylamino-ethyl)-2-(2-oxetan-3-yl-1,2,3,4-tetrahydro-isoquinolin-5-ylamino)-N-(2-trifluoromethyl-benzyl)-acetamide], 7.07; with `CN(C)CCN(Cc1ccccc1C(F)(F)F)C(=O)CNc1cccc2c1CN(S(=O)(=O)c1ccccc1)CC2` [compound 545], 7.10. The molecule `CCC(=O)N1CCc2c(cccc2NCC(=O)N(CCN(C)C)Cc2ccc(Cl)cc2)C1` [Example 19, N-(4-Chloro-benzyl)-N-(2-dimethylamino-ethyl)-2-(2-propionyl-1,2,3,4-tetrahydro-isoquinolin-5-ylamino)-acetamide] had a pEC50 of 6.99. `CN(C)CCN(Cc1ccccc1C(F)(F)F)C(=O)CNc1cccc2c1CCN(c1ncccn1)C2` [Example 375, N-(2-Dimethylamino-ethyl)-2-(2-pyrimidin-2-yl-1,2,3,4-tetrahydro-isoquinolin-5-ylamino)-N-(2-trifluoromethyl-benzyl)-acetamide] gave a negative logarithm of the EC50 (pEC50) of 8.22. With `Cc1csc(CN(Cc2ccccc2C(F)(F)F)C(=O)CNc2cccc3c2CCN(CC2CC2)C3)n1` [Example 77, 2-(2-Cyclopropylmethyl-1,2,3,4-tetrahydro-isoquinolin-5-ylamino)-N-(4-methyl-thiazol-2-ylmethyl)-N-(2-trifluoromethyl-benzyl)-acetamide] the figure was 7.34. To `CN(C)CCN(Cc1ccccc1C(F)(F)F)C(=O)CNc1cccc2c1CCN(CC#N)C2` [Example 364, 2-(2-Cyanomethyl-1,2,3,4-tetrahydro-isoquinolin-5-ylamino)-N-(2-dimethylamino-ethyl)-N-(2-trifluoromethyl-benzyl)-acetamide] belongs 7.36.

`CCN1Cc2c(NCC(=O)N(CCN(C)C)Cc3ccccc3C(F)(F)F)cccc2C(C)(C)C1` [compound 198] gave a pEC50 of 6.41.

`COC(=O)N1CCc2c(cccc2OCC(=O)N(CCN(C)C)Cc2ccccc2)C1` [Example 167, 5-{[Benzyl-(2-dimethylamino-ethyl)-carbamoyl]-methoxy}-3,4-dihydro-1H-isoquinoline-2-carboxylic acid methyl ester] gave a pEC50 of 7.41. `COCCN1CCc2c(/C=C/C(=O)N(CCC(C)(C)C)Cc3ncccc3C)cccc2C1` [Example 320, (E)-N-(3,3-Dimethyl-butyl)-3-[2-(2-methoxy-ethyl)-1,2,3,4-tetrahydro-isoquinolin-5-yl]-N-(3-methyl-pyridin-2-ylmethyl)-acrylamide] had a pEC50 of 6.81.

The molecule `Cc1cc(CN(CCN(C)C)C(=O)CNc2cccc3c2CCN(CC2CC2)C3)no1` [Example 269, 2-(2-Cyclopropylmethyl-1,2,3,4-tetrahydro-isoquinolin-5-ylamino)-N-(2-dimethylamino-ethyl)-N-(5-methyl-isoxazol-3-ylmethyl)-acetamide] gave a pEC50 of 7.27. `CCC(=O)N1CCc2c(cccc2NCC(=O)N(CCN(C)C)Cc2ccccc2OC)C1` [Example 28, N-(2-Dimethylamino-ethyl)-N-(2-methoxy-benzyl)-2-(2-propionyl-1,2,3,4-tetrahydro-isoquinolin-5-ylamino)-acetamide] had a pEC50 of 7.20. Take `CN1CCc2c(cccc2NCC(=O)N(Cc2ccccc2)CC2CC2)C1` [Example 175, N-Benzyl-N-cyclopropylmethyl-2-(2-methyl-1,2,3,4-tetrahydro-isoquinolin-5-ylamino)-acetamide]: the pEC50 is 6.47. The molecule `COCCN1CCc2c(/C=C/C(=O)N(CCN3CCC(F)(F)CC3)Cc3ncccc3C(F)(F)F)cccc2C1` [Example 322, (E)-N-[2-(4,4-Difluoro-piperidin-1-yl)-ethyl]-3-[2-(2-methoxy-ethyl)-1,2,3,4-tetrahydro-isoquinolin-5-yl]-N-(3-trifluoromethyl-pyridin-2-ylmethyl)-acrylamide] had a pEC50 of 6.92. To `CCN1CCc2cccc(NCC(=O)N(Cc3ccccc3C(F)(F)F)C3CCOCC3)c2C1` [compound 519] belongs 6.60; to `CCN1CCc2cccc(NCC(=O)N(CCN(C)C)Cc3ncccc3F)c2C1` [compound 528, N-(2-Dimethylamino-ethyl)-2-(2-ethyl-1,2,3,4-tetrahydro-isoquinolin-8-ylamino)-N-(3-fluoro-pyridin-2-ylmethyl)-acetamide], 7.38; to `CCN(CC)CCN(Cc1ccccc1)C(=O)CNc1cccc2c1CN(CC)CC2` [compound 490, N-Benzyl-N-(2-diethylamino-ethyl)-2-(2-ethyl-1,2,3,4-tetrahydro-isoquinolin-8-ylamino)-acetamide], 7.68. `CN(C)CCN(Cc1ncccc1C(F)(F)F)C(=O)CNc1cccc2c1CN(CC1CC1)CC2` [compound 566, 2-(2-Cyclopropylmethyl-1,2,3,4-tetrahydro-isoquinolin-8-ylamino)-N-(2-dimethylamino-ethyl)-N-(3-trifluoromethyl-pyridin-2-ylmethyl)-acetamide] showed a negative logarithm of the EC50 (pEC50) of 8.52. With `CN(C)CCN(Cc1ccccc1C(F)(F)F)C(=O)CNc1cccc2c1CCN(C(=O)C1(C(F)(F)F)CC1)C2` [Example 571, N-(2-Dimethylamino-ethyl)-N-(2-trifluoromethyl-benzyl)-2-[2-(1-trifluoromethyl-cyclopropanecarbonyl)-1,2,3,4-tetrahydro-isoquinolin-5-ylamino]-acetamide] the figure was 7.07. For `CCN1CCc2c(/C=C/C(=O)N(CCN(C)C)Cc3ccccc3C(F)(F)F)cccc2C1` [compound 149, (E)-N-(2-Dimethylamino-ethyl)-3-(2-ethyl-1,2,3,4-tetrahydro-isoquinolin-5-yl)-N-(2-trifluoromethyl-benzyl)-acrylamide], the pEC50 was 9.22.

On to `CN(C)CCN(Cc1ccccc1)C(=O)CNc1cccc2c1CN(CC1CC1)C2` [Example 209, N-Benzyl-2-(2-cyclopropylmethyl-2,3-dihydro-1H-isoindol-4-ylamino)-N-(2-dimethylamino-ethyl)-acetamide], for which the negative-log EC50 (pEC50) was 7.29. With `CN(C)CCN(Cc1ccccc1C(F)(F)F)C(=O)CN(C)c1cccc2c1CCN(CC1CC1)C2` [Example 87, 2-[(2-Cyclopropylmethyl-1,2,3,4-tetrahydro-isoquinolin-5-yl)-methyl-amino]-N-(2-dimethylamino-ethyl)-N-(2-trifluoromethyl-benzyl)-acetamide] the figure was 8.52; with `CN(C)CCN(Cc1ccccc1Cl)C(=O)CNc1cccc2c1CN(CC1CC1)CC2(C)C` [compound 197], 6.59; with `COCCN1CCc2c(/C=C/C(=O)N(Cc3ccccc3)C3CCS(=O)(=O)C3)cccc2C1` (stereo not shown) [Example 316, (E)-N-Benzyl-N-(1,1-dioxo-tetrahydro-1l6-thiophen-3-yl)-3-[2-(2-methoxy-ethyl)-1,2,3,4-tetrahydro-isoquinolin-5-yl]-acrylamide], 6.43.

`O=C(CNc1cccc2c1CN(CC1CC1)CC2)N(CCN1CCCC(F)(F)C1)Cc1ncccc1C(F)(F)F` [compound 480, 2-(2-Cyclopropylmethyl-1,2,3,4-tetrahydro-isoquinolin-8-ylamino)-N-[2-(3,3-difluoro-piperidin-1-yl)-ethyl]-N-(3-trifluoromethyl-pyridin-2-ylmethyl)-acetamide] had a pEC50 of 7.55.
